Like-named read-outs stand apart in the source and are kept apart here.
What was measured:
C32 human melanoma cells = assay: cell viability in the C32 cell-based assay (Viability, C32 IC50); conditions: concentration causing 50% cell death, values greater than 10 represent a lack of cell death
In short: (§1)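 Cell death was scored within the cell-based GM3 experiment for each line. The viability value is the concentration producing 50% death, and numbers exceeding 10 signify no cytotoxicity.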

[1] = system: GM3 expression on the cell surface, C32 human melanoma cells; assay: cell based phenotypic assay, cell surface GM3 by antibody mediated immunofluorescence, C32 (GM3 C32 IC50); conditions: 50% inhibition of GM3 expression on the cell surface
In short: (§2)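 Both lines undergo the phenotypic GM3 assay, and viability is recorded from that same cell-based run.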

[2] = system: GM3 expression on the cell surface, B16 mouse melanoma cells; assay: cell based phenotypic assay, cell surface GM3 by antibody mediated immunofluorescence, B16 (GM3 B16 IC50); conditions: 50% inhibition of GM3 expression on the cell surface
In short: as §2

B16 mouse melanoma cells = assay: cell viability in the B16 cell-based assay (Viability, B16 IC50); conditions: Mus musculus
In short: as §1

[3] = biological target: T1, glucosylceramide synthase (Homo sapiens, UniProt Q16739); assay: microsomal assay measuring conversion of ceramide to glucosylceramide by HPLC (GCS IC50); format: biochemical; conditions: concentration causing 50% inhibition of glucosylceramide synthase activity
T1 construct: Microsomes were isolated from A375 human melanoma cells; endogenous in cells; host or cells: A375 human melanoma cells (microsomal fraction, 100,000 g pellet)
T1 sequence (Q16739 1-394): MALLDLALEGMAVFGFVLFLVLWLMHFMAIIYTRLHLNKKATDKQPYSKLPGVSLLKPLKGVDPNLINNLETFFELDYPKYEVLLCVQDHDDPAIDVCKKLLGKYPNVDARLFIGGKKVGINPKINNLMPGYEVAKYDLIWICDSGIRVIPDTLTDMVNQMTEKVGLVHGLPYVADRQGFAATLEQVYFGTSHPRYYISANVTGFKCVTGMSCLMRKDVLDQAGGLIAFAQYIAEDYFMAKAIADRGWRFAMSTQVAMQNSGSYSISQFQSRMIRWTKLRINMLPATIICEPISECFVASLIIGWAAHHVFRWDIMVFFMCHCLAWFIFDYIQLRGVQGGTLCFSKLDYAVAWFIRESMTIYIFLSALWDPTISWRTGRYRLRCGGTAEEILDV
In short: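 IC50 is the compound concentration halving glucosylceramide synthase activity. Activity was measured in microsomes, with HPLC quantifying glucosylceramide formed from ceramide.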

[4] = Homo sapiens, C32, C32 cells, read-out: Viability, C32 IC50
[5] = Homo sapiens, C32 human melanoma cells, read-out: GM3 C32 IC50
[6] = Mus musculus, B16 mouse melanoma cells, read-out: GM3 B16 IC50
[7] = B16, B16 cells, concentration causing 50% cell death, values greater than 10 represent a lack of cell death, read-out: Viability, B16 IC50
[8] = Homo sapiens, C32, read-out: Viability, C32 IC50, C32 cells
[9] = Homo sapiens, read-out: GM3 C32 IC50, C32 human melanoma cells
[10] = Mus musculus, read-out: GM3 B16 IC50, B16 mouse melanoma cells
[11] = B16, read-out: Viability, B16 IC50

IC50 [1, 5]	IC50 [2, 6]	Compound	IC50 (C32 human melanoma cells; [4])	IC50 (B16 mouse melanoma cells; [7])	IC50 [3]	IC50 (C32 human melanoma cells; [8])	IC50 [1, 9]	IC50 [2, 10]	IC50 (B16 mouse melanoma cells; [11])	IC50 (C32 human melanoma cells; read-out: Viability, C32 IC50, C32 cells)	IC50 ([1]; read-out: GM3 C32 IC50, C32 human melanoma cells)	IC50 ([2]; read-out: GM3 B16 IC50, B16 mouse melanoma cells)
22.7 nM	284 nM	CC(C)(NC(=O)OC1CCN2CCC1CC2)c1ccc(-c2ccc(C(=O)N3CCOCC3)cc2)cc1 (centres unmarked) [Example 266, 1-Azabicyclo[3.2.2]nonan-4-yl 2-(4′-(morpholine-4-carbonyl)biphenyl-4-yl)propan-2-ylcarbamate]	1000 nM	≥ 10000 nM	399 nM	–	–	–	–	–	–	–
31.5 nM	648 nM	CC(C)(NC(=O)NC1(C)CCN2CCC1CC2)c1ccc(-c2ccc(C(=O)N3CCOCC3)cc2)cc1 (centres unmarked) [Example 268, 1-(4-Methyl-1-azabicyclo[3.2.2]nonan-4-yl)-3-(2-(4′-(morpholine-4-carbonyl)biphenyl-4-yl)propan-2-yl)urea]	1000 nM	≥ 10000 nM	166 nM	–	–	–	–	–	–	–
518 nM	2160 nM	CC(C)(NC(=O)N1CCN2CCC1CC2)c1ccc(-c2ccc(C(=O)N3CCOCC3)cc2)cc1 [Example 269, N-(2-(4′-(Morpholine-4-carbonyl)biphenyl-4-yl)propan-2-yl)-1,4-diazabicyclo[3.2.2]nonane-4-carboxamide]	≥ 10000 nM	≥ 10000 nM	23000 nM	–	–	–	–	–	–	–
–	–	CC(C)(NC(=O)OC1CN2CCC1CC2)c1ccc(-c2ccc(C(=O)N3CCC(F)(F)CC3)cc2)cc1 (centres unmarked) [Example 270, Quinuclidin-3-yl 2-(4′-(4,4-difluoropiperidine-1-carbonyl)biphenyl-4-yl)propan-2-ylcarbamate]	–	–	25 nM	1000 nM	3.56 nM	67 nM	≥ 10000 nM	–	–	–
2.64 nM	60.7 nM	CC(C)(NC(=O)OC1CCN2CCC1CC2)c1ccc(-c2ccc(C(=O)N3CCC(F)(F)CC3)cc2)cc1 (centres unmarked) [Example 271, 1-Azabicyclo[3.2.2]nonan-4-yl 2-(4′-(4,4-difluoropiperidine-1-carbonyl)biphenyl-4-yl)propan-2-ylcarbamate]	316 nM	≥ 10000 nM	9.42 nM	–	–	–	–	–	–	–
–	–	CC(C)(NC(=O)OC1CN2CCC1CC2)c1ccc(-c2ccc(C(=O)N3CC(F)(F)C3)cc2)cc1 (centres unmarked) [Example 273, Quinuclidin-3-yl 2-(4′-(3,3-difluoroazetidine-1-carbonyl)biphenyl-4-yl)propan-2-ylcarbamate]	–	–	108 nM	3160 nM	10.6 nM	74 nM	≥ 10000 nM	–	–	–
4.78 nM	67.3 nM	CC(C)(NC(=O)OC1CCN2CCC1CC2)c1ccc(-c2ccc(C(=O)N3CC(F)(F)C3)cc2)cc1 (centres unmarked) [Example 274, 1-Aza-bicyclo[3.2.2]nonan-4-yl 2-(4′-(3,3-difluoroazetidine-1-carbonyl)biphenyl-4-yl)propan-2-ylcarbamate]	1000 nM	≥ 10000 nM	30.4 nM	–	–	–	–	–	–	–
29.6 nM	1530 nM	CC(C)(NC(=O)NC1(C)CCN2CCC1CC2)c1cccc(Oc2cccc(C(=O)N3CCOCC3)c2)c1 (centres unmarked) [Example 276, 1-(4-Methyl-1-azabicyclo[3.2.2]nonan-4-yl)-3-(2-(3-(3-(morpholine-4-carbonyl)phenoxy)phenyl)propan-2-yl)urea]	3160 nM	≥ 10000 nM	20 nM	–	–	–	–	–	–	–
53 nM	1440 nM	CC(C)(NC(=O)OC1CCN2CCC1CC2)c1cccc(Oc2cccc(C(=O)N3CCOCC3)c2)c1 (centres unmarked) [Example 278, 1-Aza-bicyclo[3.2.2]nonan-4-yl 2-(3-(3-(morpholine-4-carbonyl)phenoxy)phenyl)propan-2-ylcarbamate]	≥ 10000 nM	≥ 10000 nM	593 nM	–	–	–	–	–	–	–
–	–	CC(C)(NC(=O)OC1CN2CCC1CC2)c1cccc(Oc2cccc(C(=O)N3CCOCC3)c2)c1 (centres unmarked) [Example 279, Quinuclidin-3-yl 2-(3-(3-(morpholine-4-carbonyl)phenoxy)phenyl)propan-2-ylcarbamate]	–	–	4330 nM	3160 nM	217 nM	3920 nM	≥ 10000 nM	–	–	–
7.79 nM	440 nM	CC(C)(NC(=O)NC1(C)CCN2CCC1CC2)c1ccc(Oc2ccc(C(=O)N3CCOCC3)cc2)cc1 (centres unmarked) [Example 281, 1-(4-Methyl-1-azabicyclo[3.2.2]nonan-4-yl)-3-(2-(4-(4-(morpholine-4-carbonyl)phenoxy)phenyl)propan-2-yl)urea]	1000 nM	≥ 10000 nM	31.6 nM	–	–	–	–	–	–	–
40.4 nM	660 nM	CC(C)(NC(=O)OC1CCN2CCC1CC2)c1ccc(Oc2ccc(C(=O)N3CCOCC3)cc2)cc1 (centres unmarked) [Example 282, 1-Azabicyclo[3.2.2]nonan-4-yl 2-(4-(4-(morpholine-4-carbonyl)phenoxy)phenyl)propan-2-ylcarbamate]	3160 nM	≥ 10000 nM	479 nM	–	–	–	–	–	–	–
–	–	CN(C)C(=O)c1ccc(Oc2ccc(C(C)(C)NC(=O)OC3CN4CCC3CC4)cc2)cc1 (centres unmarked) [Example 283, Quinuclidin-3-yl 2-(4-(4-(dimethylcarbamoyl)phenoxy)phenyl)propan-2-ylcarbamate]	–	–	606 nM	–	–	–	≥ 10000 nM	≥ 10000 nM	114 nM	1030 nM

Compound	IC50 [1, 5]	IC50 [2, 6]	IC50 (C32 human melanoma cells; [4])	IC50 (B16 mouse melanoma cells; [7])	IC50 [3]	IC50 (C32 human melanoma cells; [8])	IC50 [1, 9]	IC50 [2, 10]	IC50 (B16 mouse melanoma cells; [11])	IC50 (C32 human melanoma cells; read-out: Viability, C32 IC50, C32 cells)	IC50 ([1]; read-out: GM3 C32 IC50, C32 human melanoma cells)	IC50 ([2]; read-out: GM3 B16 IC50, B16 mouse melanoma cells)
CC(C)(NC(=O)NC1(C)CN2CCC1CC2)c1ccc(-c2ccc(C(=O)N3CCOCC3)cc2)cc1 (centres unmarked) [Example 267, 1-(3-Methylquinuclidin-3-yl)-3-(2-(4′-(morpholine-4-carbonyl)biphenyl-4-yl)propan-2-yl)urea]	119 nM	2770 nM	≥ 10000 nM	565 nM	363 nM	–	–	–	–	–	–	–
CCC1(NC(=O)NC(C)(C)c2ccc(-c3ccc(C(=O)N4CCC(F)(F)CC4)cc3)cc2)CN2CCC1CC2 (centres unmarked) [Example 272, 1-(2-(4′-(4,4-Difluoropiperidine-1-carbonyl)biphenyl-4-yl)propan-2-yl)-3-(3-ethylquinuclidin-3-yl)urea]	2.15 nM	24.9 nM	1000 nM	≥ 10000 nM	16.4 nM	–	–	–	–	–	–	–
CCC1(NC(=O)NC(C)(C)c2ccc(-c3ccc(C(=O)N4CC(F)(F)C4)cc3)cc2)CN2CCC1CC2 (centres unmarked) [Example 275, 1-(2-(4′-(3,3-Difluoroazetidine-1-carbonyl)biphenyl-4-yl)propan-2-yl)-3-(3-ethylquinuclidin-3-yl)urea]	2.92 nM	55.4 nM	1000 nM	≥ 10000 nM	75.6 nM	–	–	–	–	–	–	–
CC(C)(NC(=O)NC1(C)CN2CCC1CC2)c1cccc(Oc2cccc(C(=O)N3CCOCC3)c2)c1 (centres unmarked) [Example 277, 1-(3-Methylquinuclidin-3-yl)-3-(2-(3-(3-(morpholine-4-carbonyl)phenoxy)phenyl)propan-2-yl)urea]	80.1 nM	2030 nM	≥ 10000 nM	≥ 10000 nM	91.7 nM	–	–	–	–	–	–	–
CC(C)(NC(=O)NC1(C)CN2CCC1CC2)c1ccc(Oc2ccc(C(=O)N3CCOCC3)cc2)cc1 (centres unmarked) [Example 280, 1-(3-Methylquinuclidin-3-yl)-3-(2-(4-(4-(morpholine-4-carbonyl)phenoxy)phenyl)propan-2-yl)urea]	49.1 nM	1940 nM	1000 nM	≥ 10000 nM	164 nM	–	–	–	–	–	–	–
CN(C)C(=O)c1ccc(Oc2ccc(C(C)(C)NC(=O)NC3(C)CN4CCC3CC4)cc2)cc1 (centres unmarked) [Example 284, N,N-Dimethyl-4-(4-(2-(3-(3-methylquinuclidin-3-yl)ureido)propan-2-yl)phenoxy)benzamide]	60.7 nM	3780 nM	≥ 10000 nM	≥ 10000 nM	201 nM	–	–	–	–	–	–	–
